Reference: PubChem BioAssay AID449762 (Southern Research Specialized Biocontainment Screening …, 2010)
Inconclusive results are not listed.

Test system: M. tuberculosis H37Rv growth inhibition, 7H9 media
Assay: M. tuberculosis growth inhibition, HTS (AID 449762);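 further: bacterial growth assessed after seven days of incubation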
Conditions: for IC90: measured here: IC90 growth inhibition

Structure (SMILES)	IC50 [µM]	IC90 [µM]
Nn1c(SCc2ccccc2)nc2ccccc21	28	> 100
NC(=O)c1cccc(-c2cc(Nc3ccc(OC(F)(F)F)cc3)ncn2)c1	8.46	18.4
CC1(c2nnc(-c3ccncc3)o2)CC(c2ccccc2)=NO1 (stereo not given)	63.3	> 100
Cc1cc(C(=O)CCl)c(C)n1CCc1ccc(Cl)cc1	0.34	2.18
CN(C)CCNc1ncnc2c1sc1nc(-c3ccccc3)c3c(c12)CCCC3	17.7	20.7
COc1cccc(CC2(CO)CCCN(Cc3[nH]c4ccc(C)cc4c3C)C2)c1 (stereo not given)	44	50.4
CN(CCCNC(=O)c1cc2c(Cl)nc3ccccc3c2s1)Cc1ccccc1	41.1	61
CN1CCN(c2ccc(S(=O)(=O)N3CCCCC3)cc2NC(=O)/C=C/c2ccc(Cl)c([N+](=O)[O-])c2)CC1	30.4	38.7
CCN(CC)S(=O)(=O)c1ccc2[nH]cc(C(=O)NCCC3=CCCCC3)c(=O)c2c1	40.7	> 100
O=C(c1ccccc1)c1nn(-c2ccc(Cl)cc2)c(=O)cc1C(F)(F)F	12	19.6
COc1ccc(C2CC(c3cccs3)=Nc3ccccc3S2)cc1 (stereo not given)	30.1	44
CCN(C[C@H]1N[C@@](Cc2ccccc2)(C(=O)OC)[C@H]2C(=O)N(Cc3ccccc3)C(=O)[C@@H]12)C(=O)Nc1ccc(C(F)(F)F)cc1	10.4	11.4
Cc1cccc(NC(=O)c2nc[nH]c2C(=O)N[C@H](C)c2ccccc2)c1	3.63	> 100
CCCCCCC[N+](CC)(CC)CCCCc1ccc(Cl)cc1	24.7	27.8
CCOc1ccc(NC(=O)c2sc3nc(C)nc(N4CCOCC4)c3c2C)cc1	35.6	61.3
CC1CCCC(C)N1C(=O)COC(=O)c1cc(-c2cccs2)nn1-c1ccccc1 (stereo not given)	24.5	55.6
COc1cc(N=Nc2ccc3ccccc3c2)ccc1O	37.8	63.1
Cc1nc(N2CCN(c3ccccn3)CC2)c2c(C)c(C(=O)N3CCN(c4ccc(F)cc4)CC3)sc2n1	11.1	12.5
C/C(=N\NC(=O)c1cc2ccccc2cc1O)c1ccc(C)o1	10.1	36.3
COc1cccc(-c2nnc(NC(=O)c3ccc(S(=O)(=O)N4CCOCC4)cc3)o2)c1	23.6	26.7
COc1ccccc1C(=O)NNC(=O)C(=O)NCc1ccccc1	10.6	37.9
CCOC(=O)c1c(C)n(-c2ccc(C)cc2)c2ccc(OCC(O)CNCC3CCCO3)cc12 (stereo not given)	22.7	31

Structure (SMILES)	IC50 [µM]	IC90 [µM]
CCOc1cc(CNCCCN2CCOCC2)cc(Br)c1OCC(=O)Nc1cccc(C(F)(F)F)c1	22.1	31.7
CN(CC(=O)Nc1ccc(OC(F)(F)F)cc1)C(=O)/C=C/c1cc2c(cc1[N+](=O)[O-])OCO2	30.2	37.9
CN(C)CCCN(C(=O)c1ccc([N+](=O)[O-])s1)c1nc2cc3c(cc2s1)OCCO3	30.7	45.5
CN(c1ccccc1)S(=O)(=O)c1cccc(C(=O)NCc2ccccc2CN2CCCC2)c1	48.8	55.4
CCC(=O)Nc1nc2ccccc2n1Cc1ccc(Cl)cc1	< 0.2	4.92
O=[N+]([O-])c1ccc(CN2CCN(c3ccc(Cl)cc3)CC2)o1	< 0.2	< 0.2
CCC(C)c1ccc2oc(-c3ccc(NC(=O)c4ncn[nH]4)cc3)nc2c1 (stereo not given)	1.59	7.52
Cc1cc(CC(C)C)n(-c2nc3ccccc3c(=O)n2OCC(N)=O)n1	3.88	12.7
O=S(=O)(Nc1ccn(-c2ccccc2)n1)c1ccc(Br)cc1	95.4	> 100
O=C(/C=C/c1ccc([N+](=O)[O-])cc1)NC1CC2CCC1C2 (stereo not given)	44.6	84.1
COc1cc2nc(N3CCN(c4cc(C)ccc4C)CC3)nc(N)c2cc1OC	13.8	15.8
Cc1sc2ncnc(N3CCC(C(=O)N(CC(C)C)c4nc5ccccc5s4)CC3)c2c1C	84.5	> 100
O=C(CSc1ccccn1)Nc1nonc1[N+](=O)[O-]	1.45	2.25
CCOC(=O)CNC(=S)n1cnc(N)n1	27.8	60.6
CCOC(=O)N/N=C(/C)c1ccc([N+](=O)[O-])o1	3.86	11.8
O=c1c2ccccc2nc(/C=C/c2ccccc2)n1-c1ccc(O)cc1	–	> 100
Cc1onc(-c2c(F)cccc2Cl)c1C(=O)O/N=C(\N)c1ccc([N+](=O)[O-])o1	5.3	11
N#Cc1cccc2c1-c1ccccc1/C2=N/NC(N)=O	93.9	> 100
COc1ccc(CNc2ncnc3c2[nH]c2cc(OC)c(OC)cc23)cc1	5.2	14.9
O=C(c1cc([N+](=O)[O-])cc([N+](=O)[O-])c1)N(Cc1nnc(-c2ccccc2Cl)o1)C1CC1	2.59	8.42
COc1cc(NC(=O)C/C(C)=N/NC(=O)c2ccccn2)c(OC)cc1Cl	3	4.13
